Counter-ions that a name gives are not always drawn.
Legend:
[1] = molecular target: T1, proMMP9(20-445;ΔFnII) (SEQ ID NO:6) (Homo sapiens, UniProt P14780, DEL216-390); assay: ThermoFluor binding assay with proMMP9(20-445;ΔFnII)
T1 construct: start methionine (N); made in house; host or cells: E. coli BL21(DE3) RIL
T1 sequence (P14780 with tags, fused parts or gaps DEL216-390): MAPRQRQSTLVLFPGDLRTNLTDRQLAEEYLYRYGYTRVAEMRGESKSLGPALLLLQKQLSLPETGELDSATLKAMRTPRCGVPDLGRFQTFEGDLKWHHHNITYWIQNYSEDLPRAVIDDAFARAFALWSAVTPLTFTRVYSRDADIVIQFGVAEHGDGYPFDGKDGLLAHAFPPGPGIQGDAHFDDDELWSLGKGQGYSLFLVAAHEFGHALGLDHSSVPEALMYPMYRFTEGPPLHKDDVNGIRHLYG
Description: (§1) The ThermoFluor® (TF) assay is a 384-well plate-based binding assay that measures thermal stability of proteins (Biomol Screen 2001, 6, 429-40; Biochemistry 2005, 44, 5258-66). The experiments were carried out using instruments available from Johnson & Johnson Pharmaceutical Research & Development, LLC. TF dye used in all experiments was […] (1,8-ANS) (Invitrogen: A-47).
(§2) Compounds were arranged in a pre-dispensed plate (Greiner Bio-one: 781280), wherein compounds were serially diluted in 100% DMSO across 11 columns within a series. Columns 12 and 24 were used as DMSO reference and contained no compound. For multiple compound concentration-response experiments, the compound aliquots ([…]) were robotically predispensed directly into black 384-well polypropylene PCR microplates (Abgene: TF-0384/k) using a Cartesian Hummingbird liquid handler (DigiLab, Holliston, Mass.). Following compound dispense, protein and dye solutions were added to achieve the final assay volume of 3 μL. The assay solutions were overlayed with 1 μL of silicone oil (Fluka, type DC 200: 85411) to prevent evaporation.
(§3) Assay plates were robotically loaded onto a thermostatically controlled PCR-type thermal block and then heated from 40 to 90° C. at a ramp-rate of 1° C./min for all experiments. Fluorescence was measured by continuous illumination with UV light (Hamamatsu LC6) supplied via fiber optics and filtered through a band-pass filter (380-400 nm; >60D cutoff). Fluorescence emission of the entire 384-well plate was detected by measuring light intensity using a CCD camera (Sensys, Roper Scientific) filtered to detect 500±25 nm, resulting in simultaneous and independent readings of all 384 wells. A single image with 20-sec exposure time was collected at each temperature, and the sum of the pixel intensity in a given area of the assay plate was recorded vs temperature and fit to standard equations to yield the Tm (J Biomol Screen 2001, 6, 429-40).
(§4) Thermodynamic parameters necessary for fitting compound binding for each proMMP were estimated by differential scanning calorimetry (DSC) and from ThermoFluor® data. The heat capacity of unfolding for each protein was estimated from the molecular weight and from ThermoFluor® dosing data.
ThermoFluor® with proMMP9(20-445;ΔFnII (SEQ ID NO:6)
The protein sample preparations included a desalting buffer exchange step via a PD-10 gravity column (GE Healthcare). The desalting buffer exchange was performed prior to diluting the protein to the final assay concentration of 2.8 μM proMMP9(20-445;ΔFnII) (SEQ ID NO:6). The concentration of proMMP9(20-445;ΔFnII) (SEQ ID NO:6) was determined spectrophotometrically based on a calculated extinction coefficient of ε280=39880 M^−1 cm^−1, a calculated molecular weight of 28.2 kDa, and calculated pI of 5.5. ThermoFluor® reference conditions were define as follows: 80 μg/mL (2.8 μM) proMMP9(20-445;ΔFnII) (SEQ ID NO:6), 50 μM 1,8-ANS, pH 7.0 Buffer (50 mM HEPES pH 7.0, 100 mM NaCl, 0.001% Tween-20, 2.5 mM MgCl2, 300 μM CaCl2). The thermodynamic parameters for proMMP9(20-445;ΔFnII) (SEQ ID NO:6) are as follows: Tm (° C.)=72 (+/−0.1), ΔUH(Tm) (cal mol^−1)=160000(+/−5000), ΔUS(Tm) (cal mol^−1 K^−1)=434, ΔUCp (cal mol^−1 K^−1)=2400.

[2] = molecular target: T2, proMMP9(67-444;ΔFnII) (SEQ ID NO:5) (Homo sapiens, UniProt P14780, DEL216-390); assay: ThermoFluor binding assay with proMMP9(67-444;ΔFnII)
T2 construct: start methionine (N); made in house; host or cells: E. coli BL21(DE3) RIL
T2 sequence (P14780 with tags, fused parts or gaps DEL216-390): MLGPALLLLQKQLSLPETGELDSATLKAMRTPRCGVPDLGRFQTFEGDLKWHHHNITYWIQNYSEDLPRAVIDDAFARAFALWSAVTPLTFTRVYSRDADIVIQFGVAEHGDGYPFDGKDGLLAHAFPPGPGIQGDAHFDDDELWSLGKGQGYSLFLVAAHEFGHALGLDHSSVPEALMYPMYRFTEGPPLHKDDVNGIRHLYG
Description: as §1, §2, §3, §4
ThermoFluor® with proMMP9(67-444;ΔFnII (SEQ ID NO:5)
The protein sample preparations had to include a desalting buffer exchange step via a PD-10 gravity column (GE Healthcare). The desalting buffer exchange was performed prior to diluting the protein to the final assay concentration of 3.5 μM proMMP9(67-444;ΔFnII) (SEQ ID NO:5). The concentration of proMMP9(67-444;ΔFnII) (SEQ ID NO:5) was determined spectrophotometrically based on a calculated extinction coefficient of ε280=33900 M^−1 cm^−1, a calculated molecular weight of 22.6 kDa, and calculated pI of 5.20. ThermoFluor® reference conditions were defined as follows: 80 μg/mL (3.5 μM) proMMP9(67-444;ΔFnII) (SEQ ID NO:5), 50 μM 1,8-ANS, pH 7.0 Buffer (50 mM HEPES pH 7.0, 100 mM NaCl, 0.001% Tween-20, 2.5 mM MgCl2, 300 μM CaCl2). The thermodynamic parameters for proMMP9(67-444;ΔFnII) (SEQ ID NO:5) are as follows: Tm (° C.)=63 (+/−0.1), ΔUH(Tm) (cal mol^−1)=105000(+/−5000), ΔUS(Tm) (cal mol^−1 K^−1)=450, ΔuCp (cal mol^−1 K^−1)=2000.

[3] = molecular target: T3, full-length proMMP9(1-707) (SEQ ID NO:1), activation by catalytic MMP3 (Homo sapiens, UniProt P14780, R574P); assay: proMMP9/MMP3 P126 Activation Assay; assay type: biochemical
T3 construct: made in house; host or cells: HEK293 (transient, secreted)
T3 sequence (P14780 20-707 R574P): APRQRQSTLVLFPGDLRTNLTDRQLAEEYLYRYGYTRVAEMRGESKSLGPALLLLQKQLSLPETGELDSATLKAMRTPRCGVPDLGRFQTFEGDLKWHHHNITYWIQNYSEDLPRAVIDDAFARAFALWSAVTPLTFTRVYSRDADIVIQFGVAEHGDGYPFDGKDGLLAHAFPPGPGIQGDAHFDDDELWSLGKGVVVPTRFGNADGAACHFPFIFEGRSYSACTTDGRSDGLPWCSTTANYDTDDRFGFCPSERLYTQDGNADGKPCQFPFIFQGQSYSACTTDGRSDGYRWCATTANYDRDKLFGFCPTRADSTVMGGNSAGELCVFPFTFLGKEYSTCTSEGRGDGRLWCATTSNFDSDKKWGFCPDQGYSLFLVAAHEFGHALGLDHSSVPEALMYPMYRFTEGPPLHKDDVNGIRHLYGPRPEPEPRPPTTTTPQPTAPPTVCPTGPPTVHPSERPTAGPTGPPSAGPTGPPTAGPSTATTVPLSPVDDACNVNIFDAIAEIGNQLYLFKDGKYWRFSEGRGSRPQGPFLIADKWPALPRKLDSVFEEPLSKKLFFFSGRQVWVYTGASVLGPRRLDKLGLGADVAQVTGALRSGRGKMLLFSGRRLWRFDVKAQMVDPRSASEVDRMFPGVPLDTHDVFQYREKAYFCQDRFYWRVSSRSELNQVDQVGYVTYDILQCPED
Description: proMMP9/MMP3 P126 Activation Assay
The reaction volume was 50 μL. […] Reactivity of residual MMP3 towards P-126 substrate was minimal under these conditions.

[4] = molecular target: T4, proMMP13(1-268) (SEQ ID NO:7), activation by plasmin (Homo sapiens, UniProt P45452); assay: ProMMP13/Plasmin P126 Activation Assay; assay type: biochemical
T4 construct: 6×-histidine tag (C); made in house; host or cells: HEK293 (transient, secreted)
Description: ProMMP13/Plasmin P126 Activation Assay
On the day of assay, proMMP13(1-268) (SEQ ID NO:7) purified from HEK293 cells and plasmin were diluted to 160 nM and 320 nM, respectively, in assay buffer. The reaction volume was 50 μL. […] The plate was sealed and incubated for 40 min at 37° C. […] Plasmin was not reactive towards P-126 substrate under these conditions.

[5] = molecular target: T5, proMMP13(1-268) (SEQ ID NO:7) (Homo sapiens, UniProt P45452); assay: ThermoFluor binding assay with proMMP13(1-268)
T5 construct: 6×-histidine tag (C); made in house; host or cells: HEK293 (transient, secreted)
Description: as §1, §2, §3, §4
ThermoFluor® with proMMP13(1-268) (SEQ ID NO: 7)
The proMMP13(1-268) (SEQ ID NO:7) protein sample preparations included a desalting buffer exchange step via a PD-10 gravity column (GE Healthcare). The desalting buffer exchange was performed prior to diluting the protein to the final assay concentration of 3.5 μM. The concentration of proMMP13(1-268) (SEQ ID NO:7) was estimated spectrophotometrically based on a calculated extinction coefficient of ε280=37000 M^−1 cm^−1, a calculated molecular weight of 30.8 kDa, and calculated pI of 5.33. ThermoFluor® reference conditions were defined as follows: 100 μg/mL proMMP13(1-268) (SEQ ID NO:7), 25 μM 1,8-ANS, pH 7.0 Buffer (50 mM HEPES pH 7.0, 100 mM NaCl, 0.001% Tween-20, 2.5 mM MgCl2, 300 μM CaCl2). The thermodynamic parameters for proMMP13(1-268) (SEQ ID NO:7) are as follows: Tm (° C.)=67 (+/−0.1), ΔUH(Tm) (cal mol^−1)=107000(+/−5000), ΔUS(Tm) (cal mol^−1 K^−1)=318, ΔUCp (cal mol^−1 K^−1)=2600.

[6] = molecular target: T3, full-length proMMP9(1-707) (SEQ ID NO:1), activation by catalytic MMP3; assay: ProMMP9/MMP3 DQ Gelatin Activation Assay; assay type: biochemical; conditions: read-out: ProMMP9/MMP3 DQ gel Activation Assay, IC50
From the text: ProMMP9/MMP3 DQ Gelatin Activation Assay

Row | Kd [1] [nM] | Kd [2] [nM] | IC50 [3] [nM] | IC50 [4] [nM] | Kd [5] [nM] | IC50 [6] [nM] | Structure (SMILES)
1 | 30 | 330 | 150 | 900 |  |  | CC(C)Oc1ccc(C(N)=O)cc1Nc1nc(-c2ccc3c(c2)ncn3C)cs1 [Example 8, 4-Isopropoxy-3-[4-(1-methyl-1H-benzoimidazol-5-yl)-thiazol-2-ylamino]-benzamide]
2 | 1500 | 9600 | 1800 |  | 1200 |  | Cc1ccn2c(-c3csc(Nc4cc(C(N)=O)ccc4OC(C)C)n3)c(C)nc2c1 [Example 7, 3-[4-(2,7-Dimethyl-imidazo[1,2-a]pyridin-3-yl)-thiazol-2-ylamino]-4-isopropoxy-benzamide]
3 | 240 | 670 | 3400 |  |  |  | CC(C)Oc1ccc(S(N)(=O)=O)cc1Nc1nc(-c2ccc3occc3c2)cs1 [Example 24, 3-(4-Benzofuran-5-yl-thiazol-2-ylamino)-4-isopropoxy-benzenesulfonamide•TFA]
4 | 1200 | 750 | 2500 |  | 1900 |  | Cc1c(-c2csc(Nc3cc(C(N)=O)ccc3OC(C)C)n2)sc2ccccc12 [Example 3, 4-Isopropoxy-3-[4-(3-methyl-benzo[b]thiophen-2-yl)-thiazol-2-ylamino]-benzamide•HBr]
5 | 140 | 440 | 360 |  |  |  | Cc1nc2cc(-c3csc(Nc4cc(S(N)(=O)=O)ccc4OC(C)C)n3)ccc2[nH]1 [Example 18, 4-Isopropoxy-3-[4-(2-methyl-1H-benzoimidazol-5-yl)-thiazol-2-ylamino]-benzenesulfonamide•TFA]
6 | > 29000 | > 28000 |  |  |  | 5000 | COc1ccc([N+](=O)[O-])cc1Nc1nc(-c2cnc3ccccn23)cs1 [Example 28, (4-Imidazo[1,2-a]pyridin-3-yl-thiazol-2-yl)-(2-methoxy-5-nitro-phenyl)-amine]
7 | 16000 | 9800 | ~7000 |  | 13000 |  | CC(C)Oc1ccc(C(N)=O)cc1Nc1nc(-c2nc3ccccc3n2C)cs1 [Example 4, 4-Isopropoxy-3-[4-(1-methyl-1H-benzoimidazol-2-yl)-thiazol-2-ylamino]-benzamide•TFA]
8 | 9700 | 16000 | 13800 |  | 4800 |  | CCOc1ccc(S(N)(=O)=O)cc1Nc1nc(-n2c(C)nc3ccccc32)cs1 [Example 5, 4-Ethoxy-3-[4-(2-methyl-benzoimidazol-1-yl)-thiazol-2-ylamino]-benzenesulfonamide]
9 | 120 | 470 | 250 |  |  |  | CCn1cnc2ccc(-c3csc(Nc4cc(S(N)(=O)=O)ccc4OC(C)C)n3)cc21 [Example 27, 3-[4-(3-Ethyl-3H-benzoimidazol-5-yl)-thiazol-2-ylamino]-4-isopropoxy-benzenesulfonamide•TFA]
10 | 780 | 1600 | 240 |  |  |  | CCn1cnc2cc(-c3csc(Nc4cc(S(N)(=O)=O)ccc4OC(C)C)n3)ccc21 [Example 25, 3-[4-(1-Ethyl-1H-benzoimidazol-5-yl)-thiazol-2-ylamino]-4-isopropoxy-benzenesulfonamide•TFA]
11 | 91 | 1400 | 320 |  |  |  | CC(C)Oc1ccc(S(N)(=O)=O)cc1Nc1nc(-c2ccc3[nH]cnc3c2)cs1 [Example 21, 3-[4-(1H-Benzoimidazol-5-yl)-thiazol-2-ylamino]-4-isopropoxy-benzenesulfonamide•TFA]
12 | 270 | 6700 | ~2000 |  |  |  | Cn1ncc2cc(-c3csc(Nc4cc(C(N)=O)ccc4OC(F)(F)F)n3)ccc21 [Example 16, 3-[4-(1-Methyl-1H-indazol-5-yl)-thiazol-2-ylamino]-4-trifluoromethoxy-benzamide•TFA]
13 | 490 | 17000 | 640 |  | 1100 |  | Cc1nc2ccc(Cl)cn2c1-c1csc(Nc2cc(C(N)=O)ccc2OC(C)C)n1 [Example 6, 3-[4-(6-Chloro-2-methyl-imidazo[1,2-a]pyridin-3-yl)-thiazol-2-ylamino]-4-isopropoxy-benzamide]

Reference: patent US20120129872A1, “FUSED HETEROARYL INHIBITORS OF PRO-MATRIX METALLOPROTEINASE ACTIVATION” (priority 2010, published 2012)
